Laboratory results: the NIST ThermoML archive (doi:10.1021/je100679s)

Experiment: xn = mol fraction of the nth substance listed
Conditions: 101 kPa, Liquid; for electrical conductivity: DDS-307 conductivity meter

CCCCCCn1cc[n+](C)c1C.O=S(=O)([N-]S(=O)(=O)C(F)(F)F)C(F)(F)F + COC(=O)OC
Conditions	electrical conductivity, 318.15 K [S/m]	electrical conductivity, 323.15 K [S/m]	electrical conductivity, 328.15 K [S/m]	electrical conductivity, 333.15 K [S/m]	mass density, 313.15 K [kg/m3]	mass density, 318.15 K [kg/m3]	mass density, 323.15 K [kg/m3]	mass density, 328.15 K [kg/m3]	mass density, 333.15 K [kg/m3]
x1 = 0.0466	0.492	0.53	0.568	0.606	–	1089.11	1082.85	1076.68	1070.28
x1 = 0.0774	0.857	0.927	0.996	1.07	–	1116.3	1110.32	1104.42	1098.51
x1 = 0.1154	1.01	1.08	1.14	1.21	–	1144.64	1138.89	1133.32	1127.61
x1 = 0.1633	1.05	1.11	1.16	1.22	–	1174.05	1168.73	1163.27	1157.77
x1 = 0.2269	1.01	1.05	1.1	1.15	–	1204.45	1199.16	1193.98	1188.58
x1 = 0.3131	0.876	0.933	0.998	1.07	1241.28	1235.85	1230.72	1225.63	1220.43
x1 = 0.4385	0.706	0.782	0.834	0.915	1272.94	1267.89	1263.01	1258.14	1253.16
x1 = 0.6368	0.492	0.548	0.623	0.686	1305.67	1300.91	1296.31	1291.79	1287.1
x1 = 0.7472	0.399	0.469	0.537	0.605	1318.62	1314.09	1309.51	1304.97	1300.47
x1 = 1	0.319	0.369	0.426	0.48	1339.88	1335.47	1331.06	1326.65	1322.24
